# In patent publication US6770728B2, “Process for preparing ocular lens with urethane compound and process for preparing urethane compound for medical instruments” (Menicon Co., Ltd., priority 1999, dated 2004):
# Assay: Solubility of catalysts in various solvents (maximum amount completely soluble)
# Assay type: physicochemical
# Procedure: Solubility of a various kind of catalysts in a various kind of solvents (water, methanol, acetone, acetonitrile, n-hexane, methylene chloride) was evaluated by studying maximum amount of catalysts completely soluble in a various kind of solvents.
substance,measurement,setting,value
Zinc acetylacetonate [ZnAA],Solubility,solvent: acetone,1000 µg/mL
same,Solubility,solvent: acetonitrile,insoluble
same,Solubility,solvent: methanol,50000 µg/mL
same,Solubility,solvent: methylene chloride,10000 µg/mL
same,Solubility,solvent: n-hexane,insoluble
same,Solubility,solvent: water,insoluble
